Residue numbers refer to the chain shown, from its start.
Tests used:
Format in all cases: cell-based
[1] = target: T1, NVL-SNAP (recombinant NVL WT; SNAP-NVL-3xFlag) (Homo sapiens, UniProt O15381); assay: in-cell UV photocrosslinking, click dye, gel fluorescence of purified NVL
T1 sequence (O15381 1-856): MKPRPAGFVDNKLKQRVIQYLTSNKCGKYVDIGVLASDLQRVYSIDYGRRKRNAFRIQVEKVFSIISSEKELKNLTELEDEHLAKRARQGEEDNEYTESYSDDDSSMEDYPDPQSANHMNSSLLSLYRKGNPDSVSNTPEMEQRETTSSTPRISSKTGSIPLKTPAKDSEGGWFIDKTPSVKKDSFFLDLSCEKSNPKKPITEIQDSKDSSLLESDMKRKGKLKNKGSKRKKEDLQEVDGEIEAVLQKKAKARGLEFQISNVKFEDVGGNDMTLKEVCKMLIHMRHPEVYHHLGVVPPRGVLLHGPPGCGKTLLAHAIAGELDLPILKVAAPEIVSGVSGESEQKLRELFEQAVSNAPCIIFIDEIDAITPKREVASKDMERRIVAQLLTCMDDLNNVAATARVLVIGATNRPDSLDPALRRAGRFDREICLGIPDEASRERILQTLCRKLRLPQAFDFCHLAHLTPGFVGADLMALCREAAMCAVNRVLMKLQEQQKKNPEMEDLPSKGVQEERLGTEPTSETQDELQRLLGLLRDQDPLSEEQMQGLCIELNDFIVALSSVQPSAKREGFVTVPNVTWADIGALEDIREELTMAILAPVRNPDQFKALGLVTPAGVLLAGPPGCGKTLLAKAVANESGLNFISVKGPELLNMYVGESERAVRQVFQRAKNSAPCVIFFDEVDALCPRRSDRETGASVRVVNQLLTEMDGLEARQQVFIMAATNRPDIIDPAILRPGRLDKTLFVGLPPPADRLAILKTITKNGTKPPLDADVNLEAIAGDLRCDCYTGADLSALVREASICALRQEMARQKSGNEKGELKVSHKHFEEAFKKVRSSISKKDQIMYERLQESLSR

[2] = target: T2, NVL-SNAP (recombinant NVL WT; SNAP-NVL-3xFlag) (Homo sapiens, UniProt O15381, R403W); assay: as above
T2 sequence (O15381 1-856 R403W): T1 sequence (O15381 1-856) with R403W

[3] = target: T1, NVL-SNAP (recombinant NVL WT; SNAP-NVL-3xFlag); assay: competition of MM514 photocrosslinking to NVL-SNAP

EC50 [1]	EC50 [2]	EC50 [3]	Structure (SMILES)
0.49 µM	> 17 µM		C#CCOCCN1C(=O)c2ccccc2Sc2cc(NC(=O)c3ccc(N=[N+]=[N-])cc3)ccc21 [MM514, 4-Azido-N-(11-oxo-10-(2-(prop-2-yn-1-yloxy)ethyl)-10,11-dihydro-dibenzo[b,f][1,4]thiazepin-7-yl)benzamide]
		26 µM	COCCN1C(=O)c2ccccc2Sc2cc(NC(=O)c3ccccc3OC)ccc21 [MM691, 2-Methoxy-N-(10-(2-methoxyethyl)-11-oxo-10,11-dihydrodibenzo[b,f][1,4]thiazepin-7-yl)benzamide]
		2.6 µM	COCCN1C(=O)c2ccccc2Sc2cc(NC(=O)c3ccc(OC)cc3)ccc21 [MM524, 4-Methoxy-N-(10-(2-methoxyethyl)-11-oxo-10,11-dihydrodibenzo[b,f][1,4]thiazepin-7-yl)benzamide]

From paper doi:10.1101/2025.07.31.667081v1 (biorxiv, 2025)
